Experimental data published in PubChem BioAssay AID1508612.

Assay: passive permeability, PAMPA, ADME assay (AID 1508612)
Details: pH 7.4, 30.0 min, 50.0 µM

SMILES	Papp
Cc1nc2ccc(C(=O)N3CCC4(CC3)CC(=O)c3c(cnn3C(C)C)C4)cc2[nH]1	16.5 ×10⁻⁶ cm/s
COc1cc(NC(=O)c2cc(-c3ccccc3O)no2)cc(OC)c1OC	680 ×10⁻⁶ cm/s
CN(C)c1cccc(-c2ccnc(N3CCC(C(N)=O)CC3)n2)c1	333 ×10⁻⁶ cm/s
Cc1nnc2n1-c1ccc(Cl)cc1C(c1ccccc1)=NC2	125 ×10⁻⁶ cm/s
COc1ccc(NC(=O)c2[nH]c(C)c(C(C)=O)c2C)cc1S(=O)(=O)N1CCCCC1	757 ×10⁻⁶ cm/s
O=C(NCc1ccc(S(=O)(=O)c2cccc(C(F)(F)F)c2)cc1)c1cnc2[nH]ncc2c1	797 ×10⁻⁶ cm/s
Cc1ccc(S(=O)(=O)Nc2cnccc2C(=O)Nc2nc(-c3ccc4c(c3)CCCC4)cs2)cc1	45.2 ×10⁻⁶ cm/s
CNC(=O)C1=C(C)NC(Nc2nc3ccccc3o2)=NC1c1[nH]ncc1Cl (centres undefined)	17.6 ×10⁻⁶ cm/s
CN(C(=O)CSc1nc2ccc(NC(=O)c3ccc(F)cc3)cc2s1)c1ccccc1	741 ×10⁻⁶ cm/s
O=[S+]([O-])(Nc1ccccc1)c1ccc(NCc2ccc(Cl)cc2O)cc1	524 ×10⁻⁶ cm/s
CC(=O)N1CCc2c(sc3c2c(=O)n(-c2ccccc2)c(=O)n3Cc2cccc(C(F)(F)F)c2)C1	> 1000 ×10⁻⁶ cm/s
O=C(Nc1nc(-c2ccccc2)cs1)c1ccncc1NS(=O)(=O)c1c(F)cc(F)cc1F	459 ×10⁻⁶ cm/s
Cc1nc(-c2ccccc2)cc([C@H]2CN3CC[C@H]2C[C@@H]3CNC2CCOCC2)n1	369 ×10⁻⁶ cm/s
CC(C)CCNC(=O)[C@H](CC(C)C)NC(=O)[C@H]1O[C@@H]1C(=O)O	< 1 ×10⁻⁶ cm/s
O=C(NCCc1ccccn1)C1CC(=O)N(c2n[nH]c3cc(Br)ccc23)C1 (centres undefined)	< 1 ×10⁻⁶ cm/s
COc1cccc(CNc2ccc(S(=O)(=O)Nc3nccs3)cc2)c1OC	313 ×10⁻⁶ cm/s
COc1ccc(-c2nc(-c3c(C)noc3C)cc3c2cc(C)n3CCN(C)C)cc1OC	> 1000 ×10⁻⁶ cm/s
CCNC(=O)c1noc(-c2cc(C(C)C)c(O)cc2O)c1-c1ccc(CN2CCOCC2)cc1	335 ×10⁻⁶ cm/s
COc1ccc2[nH]c(C[C@@H]3C[C@@H](C(C)C)[C@H](CNCc4ccccc4O)C=C3C)nc2n1	> 1000 ×10⁻⁶ cm/s
CCCCNc1oc(-c2cccc3ccccc23)nc1C#N	38 ×10⁻⁶ cm/s
Cc1ccc(S(=O)(=O)Nc2ccc(C(=O)Nc3nc(-c4ccc(Cl)cc4)cs3)cc2)cc1	11 ×10⁻⁶ cm/s
Cc1cc(Cl)ccc1COc1ccnn1-c1cc(C(=O)O)ccn1	5.16 ×10⁻⁶ cm/s
CCC(=O)N1CCN(c2ccc(-n3c(=O)ccc4cnc5ccc(-c6cnc7ccccc7c6)cc5c43)cc2C(F)(F)F)CC1	178 ×10⁻⁶ cm/s
CN1CCN(c2ccc(Nc3c4ccccc4nc4ccccc34)cc2)CC1	> 1000 ×10⁻⁶ cm/s
CCOc1ccc(CCNC(=O)c2cc3cccnc3n2Cc2cccc(C)n2)cc1OCC	744 ×10⁻⁶ cm/s

SMILES	Papp
c1ccc(-c2ccc(CNc3nc(-c4ccccn4)nnc3-c3ccccc3)cc2)cc1	> 1000 ×10⁻⁶ cm/s
COC(=O)c1ccc2nc(NC3=NC(c4[nH]ncc4Cl)C4=C(CCCC4=O)N3)oc2c1 (centres undefined)	578 ×10⁻⁶ cm/s
O=C(Nc1ccc2c(N3CCOCC3)ncnc2c1)c1cccc(Br)c1	> 1000 ×10⁻⁶ cm/s
Fc1cc(F)cc(Nc2nc(-c3ccncc3)nc3ccccc23)c1	84.9 ×10⁻⁶ cm/s
Cc1cnc(N2CCC(C(N)=O)CC2)nc1-c1cccc(N(C)C)c1	666 ×10⁻⁶ cm/s
CCOC(=O)c1ccc(-n2cnc3cc(C(=O)N4CCCCC4)ccc32)cc1	> 1000 ×10⁻⁶ cm/s
O=C1CCCC2=C1C(c1[nH]ncc1Br)N=C(Nc1nc3ccccc3o1)N2 (centres undefined)	797 ×10⁻⁶ cm/s
COc1ccnc(NC(=S)N2CCN(c3ncc(C(F)(F)F)cc3Cl)CC2)c1	> 1000 ×10⁻⁶ cm/s
Fc1cccc(CN2CCNc3cc(Nc4ccccc4)ncc3C2)c1	< 1 ×10⁻⁶ cm/s
Cc1ccc(CNc2ccccc2C(=O)Nc2nc(-c3ccccc3)cs2)cc1	26.4 ×10⁻⁶ cm/s
Fc1cc(Nc2nc(-c3ccncc3)nc3ccccc23)ccc1N1CCCC1	110 ×10⁻⁶ cm/s
CN1CCN(CCCN2c3ccccc3Sc3ccc(S(=O)(=O)N(C)C)cc32)CC1	> 1000 ×10⁻⁶ cm/s
O=C1Nc2ccc(I)cc2C1=Cc1cc(Br)c(O)c(Br)c1	150 ×10⁻⁶ cm/s
O=S(=O)(Nc1nccs1)c1ccc(NCc2cccc(Cl)c2O)cc1	18.4 ×10⁻⁶ cm/s
Cc1ccc(C(=O)Nc2ccc(CN3CCN(C)CC3)c(C(F)(F)F)c2)cc1C#Cc1cnc2cccnn12	> 1000 ×10⁻⁶ cm/s
NC(=O)C1CCN(c2nccc(Cl)n2)CC1	37.3 ×10⁻⁶ cm/s
NC(=O)Nc1cc(-c2ccc(CN3CCOCC3)cc2)sc1C(N)=O	40.3 ×10⁻⁶ cm/s
O=c1cc(-c2nc(Nc3ccc(F)c(F)c3)c3ccccc3n2)cc[nH]1	396 ×10⁻⁶ cm/s
CC(=O)c1c(C)[nH]c(C(=O)Nc2cccc(S(=O)(=O)Nc3ccc(Br)cc3)c2)c1C	288 ×10⁻⁶ cm/s
Cc1ccc(OCCn2c(CCNC(=O)N3CCCCC3)nc3ccccc32)cc1	> 1000 ×10⁻⁶ cm/s
COc1ccc(NC(=O)c2c(C)cccc2C)cc1[S+](=O)([O-])N1CCCCC1	548 ×10⁻⁶ cm/s
Cc1ccc(-c2nc(NCC(=O)Nc3cccc(C(=O)O)c3)c3ccccc3n2)cc1	< 1 ×10⁻⁶ cm/s
NC1CCN(C(=O)C2CCCN(c3nc(-c4ccccc4)nc4c3CCC4)C2)CC1 (centres undefined)	475 ×10⁻⁶ cm/s
O=C1CCCC2=C1C(c1[nH]ncc1Cl)N=C(Nc1nc3ccc(Cl)cc3o1)N2 (centres undefined)	651 ×10⁻⁶ cm/s
